According to patent US11325940B2, “Certain chemical entities, compositions, and methods” (NeuPharma, Inc., priority 2012, dated 2022):
Where two headings read alike, the source gives them in different places.

System: A549 cells
Experiment: Inhibition of cancer cell growth, MTT assay
Format: cell-based
Details: Homo sapiens
Procedure: Inhibition of cell growth by compounds was measured using MTT assay (Mosmann, T., Journal of Immunological Methods, 1983, 65, 55-63). Tumor cell lines were purchased from ATCC (American Type Culture Collection, Manassas, Va.). All cell lines were maintained in RPMI 1640 (Hyclone) supplemented with 10% fetal bovine serum (FBS, Hyclone), glutamine (2 mM, Hyclone), and antibiotics (penicillin 100 U/mL and streptomycin 50 μg/mL) at 37° C. in a humidified atmosphere of 5% CO2 in air. Taxol (as a positive control, Sigma) and compounds were dissolved in DMSO (Sigma), and the final concentration of DMSO in the medium was 1%. Tumor cells were plated in 96-well plates at densities of about 4000 cells/well of a 96-well plate and allowed to adhere/grow for 24 h. They were then treated with various concentrations of drug for 72 h. 3-(4,5-Dimethylthiazol-2-yl)-2,5-diphenyltetrazolium bromide (MTT, Sigma) was used to determine the number of viable cells at the time of compound addition and the number of cells remaining after 72 h compound exposure. The number of cells remaining after 72 h was compared to the number of viable cells at the time of compound addition by measuring the absorbance at 570 nm, allowing for the calculation of growth inhibition.
All concentrations of compounds were tested in triplicate and controls were averaged over 4 wells. IC50 was calculated by plotting the concentration of compound vs the percentage of inhibition in treated wells using GraphPad Prism 5. […] The scale utilized in Table 3 is as follows: ++++ less than 20 nM; +++ between 20 nM and 100 nM; ++ between 100 nM and 1000 nM; and + greater than 1000 nM.

[1] = A549 cells, 72 h compound exposure, MTT, read-out: IC50

CC(C)[C@@H](N)C(=O)N[C@H]1CC[C@@]2(C)[C@H](CC[C@@H]3[C@@H]2CC[C@]2(C)[C@@H](c4ccc(=O)oc4)CC[C@]32O)C1 [Compound C25, (R)-2-amino-N-((3S,5R,8R,9S,10S,13R,14S,17R)-14-hydroxy-10,13-dimethyl-17-(2-oxo-2H-pyran-5-yl)hexadecahydro-1H-cyclopenta[a]phenanthren-3-yl)-3-methylbutanamide]
IC50 (A549, 72 h): < 0.02 µM

CC(C)[C@@H](N)C(=O)N[C@H]1CC[C@]2(C)[C@H]3CC[C@]4(C)[C@@H](c5ccc(=O)oc5)CC[C@]4(O)[C@@H]3CC[C@]2(O)C1 [Compound C29, (2R)-2-amino-N-((5S,8R,9S,10R,13R,14S,17R)-5,14-dihydroxy-10,13-dimethyl-17-(2-oxo-2H-pyran-5-yl)hexadecahydro-1H-cyclopenta[a]phenanthren-3-yl)-3-methylbutanamide]
IC50 (A549, 72 h): < 0.02 µM

C[C@]12CC[C@@H](N)C[C@H]1CC[C@@H]1[C@@H]2CC[C@]2(C)[C@@H](c3ccc(=O)oc3)CC[C@]12O [Compound C34, 5-((3R,5R,8R,9S,10S,13R,14S,17R)-3-amino-14-hydroxy-10,13-dimethylhexadecahydro-1H-cyclopenta[a]phenanthren-17-yl)-2H-pyran-2-one]
IC50 (A549, 72 h): > 1 µM

C[C@]12CC[C@H](N)C[C@H]1CC[C@@H]1[C@@H]2CC[C@]2(C)[C@@H](c3ccc(=O)oc3)CC[C@]12O [Compound C35, 5-((3S,5R,8R,9S,10S,13R,14S,17R)-3-amino-14-hydroxy-10,13-dimethylhexadecahydro-1H-cyclopenta[a]phenanthren-17-yl)-2H-pyran-2-one]
IC50 (A549, 72 h): < 0.02 µM

C[C@]12CC[C@@H](NC(=O)NCCO)C[C@H]1CC[C@@H]1[C@@H]2CC[C@]2(C)[C@@H](c3ccc(=O)oc3)CC[C@]12O [Compound C07, 1-((3R,5R,8R,9S,10S,13R,14S,17R)-14-hydroxy-10,13-dimethyl-17-(2-oxo-2H-pyran-5-yl)hexadecahydro-1H-cyclopenta[a]phenanthren-3-yl)-3-(2-hydroxyethyl)urea]
IC50 (A549, 72 h): 0.1 to 1 µM

C[C@]12CC[C@H](NC(=O)NCCO)C[C@H]1CC[C@@H]1[C@@H]2CC[C@]2(C)[C@@H](c3ccc(=O)oc3)CC[C@]12O [Compound C09, 1-((3S,5R,8R,9S,10S,13R,14S,17R)-14-hydroxy-10,13-dimethyl-17-(2-oxo-2H-pyran-5-yl)hexadecahydro-1H-cyclopenta[a]phenanthren-3-yl)-3-(2-hydroxyethyl)urea]
IC50 (A549, 72 h): 0.02 to 0.1 µM

COC(=O)N(C)C1CC[C@@]2(C)[C@H](CC[C@@H]3[C@@H]2CC[C@]2(C)[C@@H](c4ccc(=O)oc4)CC[C@]32O)C1 (stereo partly drawn) [Compound C21, methyl ((5R,8R,9S,10S,13R,14S,17R)-14-hydroxy-10,13-dimethyl-17-(2-oxo-2H-pyran-5-yl)hexadecahydro-1H-cyclopenta[a]phenanthren-3-yl)(methyl)carbamate]
IC50 (A549, 72 h): < 0.02 µM

C[C@]12CC[C@@H](NC(=O)N3CCOCC3)C[C@H]1CC[C@@H]1[C@@H]2CC[C@]2(C)[C@@H](c3ccc(=O)oc3)CC[C@]12O [Compound C01, N-((3R,5R,8R,9S,10S,13R,14S,17R)-14-hydroxy-10,13-dimethyl-17-(2-oxo-2H-pyran-5-yl)hexadecahydro-1H-cyclopenta[a]phenanthren-3-yl)morpholine-4-carboxamide]
IC50 [1]: 0.1 to 1 µM

C[C@]12CCC(N3CCNCC3)C[C@H]1CC[C@@H]1[C@@H]2CC[C@]2(C)[C@@H](c3ccc(=O)oc3)CC[C@]12O (stereo partly drawn) [Compound C15, 5-((5R,8R,9S,10S,13R,14S,17R)-14-hydroxy-10,13-dimethyl-3-(piperazin-1-yl)hexadecahydro-1H-cyclopenta[a]phenanthren-17-yl)-2H-pyran-2-one]
IC50 (A549, 72 h): < 0.02 µM

C[C@]12CC[C@@H](NC(=O)N3CCNCC3)C[C@H]1CC[C@@H]1[C@@H]2CC[C@]2(C)[C@@H](c3ccc(=O)oc3)CC[C@]12O [Compound C03, N-((3R,5R,8R,9S,10S,13R,14S,17R)-14-hydroxy-10,13-dimethyl-17-(2-oxo-2H-pyran-5-yl)hexadecahydro-1H-cyclopenta[a]phenanthren-3-yl)piperazine-1-carboxamide]
IC50 [1]: < 0.02 µM

C[C@]12CC[C@H](NC(=O)[C@@H]3CCCN3)C[C@H]1CC[C@@H]1[C@@H]2CC[C@]2(C)[C@@H](c3ccc(=O)oc3)CC[C@]12O [Compound C14, (S)-N-((3S,5R,8R,9S,10S,13R,14S,17R)-14-hydroxy-10,13-dimethyl-17-(2-oxo-2H-pyran-5-yl)hexadecahydro-1H-cyclopenta[a]phenanthren-3-yl)pyrrolidine-2-carboxamide]
IC50 (A549, 72 h): < 0.02 µM

C[C@]12CC[C@@H](NC(=O)NCCN)C[C@H]1CC[C@@H]1[C@@H]2CC[C@]2(C)[C@@H](c3ccc(=O)oc3)CC[C@]12O [Compound C08, 1-(2-aminoethyl)-3-((3R,5R,8R,9S,10S,13R,14S,17R)-14-hydroxy-10,13-dimethyl-17-(2-oxo-2H-pyran-5-yl)hexadecahydro-1H-cyclopenta[a]phenanthren-3-yl)urea]
IC50 [1]: 0.1 to 1 µM

C[C@]12CC[C@@H](NC(=O)CN)C[C@H]1CC[C@@H]1[C@@H]2CC[C@]2(C)[C@@H](c3ccc(=O)oc3)CC[C@]12O [Compound C11, 2-amino-N-((3R,5R,8R,9S,10S,13R,14S,17R)-14-hydroxy-10,13-dimethyl-17-(2-oxo-2H-pyran-5-yl)hexadecahydro-1H-cyclopenta[a]phenanthren-3-yl)acetamide]
IC50 [1]: 0.02 to 0.1 µM

C[C@]12CCC(NC(=O)[C@H]3CCCN3)C[C@@]1(O)CC[C@@H]1[C@@H]2CC[C@]2(C)[C@@H](c3ccc(=O)oc3)CC[C@]12O (stereo partly drawn) [Compound C31, (2R)-N-((5S,8R,9S,10R,13R,14S,17R)-5,14-dihydroxy-10,13-dimethyl-17-(2-oxo-2H-pyran-5-yl)hexadecahydro-1H-cyclopenta[a]phenanthren-3-yl)pyrrolidine-2-carboxamide]
IC50 (A549, 72 h): < 0.02 µM

CN(C(=O)N1CCOCC1)C1CC[C@@]2(C)[C@H](CC[C@@H]3[C@@H]2CC[C@]2(C)[C@@H](c4ccc(=O)oc4)CC[C@]32O)C1 (stereo partly drawn) [Compound C23, N-((5R,8R,9S,10S,13R,14S,17R)-14-hydroxy-10,13-dimethyl-17-(2-oxo-2H-pyran-5-yl)hexadecahydro-1H-cyclopenta[a]phenanthren-3-yl)-N-methylmorpholine-4-carboxamide]
IC50 (A549, 72 h): 0.1 to 1 µM

COC(=O)N[C@H]1CC[C@@]2(C)[C@H](CC[C@@H]3[C@@H]2CC[C@]2(C)[C@@H](c4ccc(=O)oc4)CC[C@]32O)C1 [Compound C17, methyl ((3S,5R,8R,9S,10S,13R,14S,17R)-14-hydroxy-10,13-dimethyl-17-(2-oxo-2H-pyran-5-yl)hexadecahydro-1H-cyclopenta[a]phenanthren-3-yl)carbamate]
IC50 (A549, 72 h): < 0.02 µM

C[C@]12CC[C@@H](NC(=O)N3CCCC3)C[C@H]1CC[C@@H]1[C@@H]2CC[C@]2(C)[C@@H](c3ccc(=O)oc3)CC[C@]12O [Compound C05, N-((3R,5R,8R,9S,10S,13R,14S,17R)-14-hydroxy-10,13-dimethyl-17-(2-oxo-2H-pyran-5-yl)hexadecahydro-1H-cyclopenta[a]phenanthren-3-yl)pyrrolidine-1-carboxamide]
IC50 (A549, 72 h): 0.1 to 1 µM

C[C@]12CC[C@H](NC(=O)N3CCCC3)C[C@H]1CC[C@@H]1[C@@H]2CC[C@]2(C)[C@@H](c3ccc(=O)oc3)CC[C@]12O [Compound C06, N-((3S,5R,8R,9S,10S,13R,14S,17R)-14-hydroxy-10,13-dimethyl-17-(2-oxo-2H-pyran-5-yl)hexadecahydro-1H-cyclopenta[a]phenanthren-3-yl)pyrrolidine-1-carboxamide]
IC50 (A549, 72 h): < 0.02 µM

C[C@]12CC[C@@H](NC(=O)[C@@H]3CCCN3)C[C@H]1CC[C@@H]1[C@@H]2CC[C@]2(C)[C@@H](c3ccc(=O)oc3)CC[C@]12O [Compound C13, (S)-N-((3R,5R,8R,9S,10S,13R,14S,17R)-14-hydroxy-10,13-dimethyl-17-(2-oxo-2H-pyran-5-yl)hexadecahydro-1H-cyclopenta[a]phenanthren-3-yl)pyrrolidine-2-carboxamide]
IC50 (A549, 72 h): 0.1 to 1 µM

C[C@]12CC[C@H](NS(C)(=O)=O)C[C@H]1CC[C@@H]1[C@@H]2CC[C@]2(C)[C@@H](c3ccc(=O)oc3)CC[C@]12O [Compound C16, N-((3S,5R,8R,9S,10S,13R,14S,17R)-14-hydroxy-10,13-dimethyl-17-(2-oxo-2H-pyran-5-yl)hexadecahydro-1H-cyclopenta[a]phenanthren-3-yl)methanesulfonamide]
IC50 (A549, 72 h): < 0.02 µM
